Assay results: US4349546A, “D-Allose derivative and preparation method therefor” (Wakamoto Pharmaceutical Co., Ltd., priority 1980, dated 1982)

Tested on: Peripheral leukocyte count
Experiment: Effects on peripheral leukocyte count (Test Example 6)
Assay type: in vivo, DDY mice
Excerpt: Comparison of effects of CNUA and Me-CCNU* on peripheral leukocyte count:
Six-week old DDY mice each weighing 22±1 g; one group comprising 5 male mice.
CNUA and Me-CCNU were given intraperitoneally on the first day. The, blood was drawn from a tail vein at time intervals to determine the leukocyte count. The samples were used in the form of a solution in an isotonic sodium chloride solution.

SMILES: O=NN(CCCl)C(=O)N[C@@H]1[C@H](O)[C@@H](CO)OC(O)[C@@H]1O (stereo partly drawn) [CNUA, 3-[3-(2-chloroethyl)-3-nitrosoureido]-3-deoxy-D-allose]
- Peripheral leukocyte count after the administration (30 mg/kg ip, 2 day): 84.0 % based on the control
- Peripheral leukocyte count after the administration (30 mg/kg ip, 4 day): 82.2 % based on the control
- Peripheral leukocyte count after the administration (30 mg/kg ip, 7 day): 85.6 % based on the control
- Peripheral leukocyte count after the administration (30 mg/kg ip, 10 day): 84.7 % based on the control
- Peripheral leukocyte count after the administration (30 mg/kg ip, 14 day): 159 % based on the control
- Peripheral leukocyte count after the administration (60 mg/kg ip, 2 day): 78.2 % based on the control
- Peripheral leukocyte count after the administration (60 mg/kg ip, 4 day): 60.0 % based on the control
- Peripheral leukocyte count after the administration (60 mg/kg ip, 7 day): 64.5 % based on the control
- Peripheral leukocyte count after the administration (60 mg/kg ip, 10 day): 80.0 % based on the control
- Peripheral leukocyte count after the administration (60 mg/kg ip, 14 day): 100 % based on the control
- myelotoxicity (as compared with Me-CCNU): relatively low myelotoxicity
